Earlier results in patent US20260272607A1, “METHOD OF MARKING LESIONS” (Cook Medical Technologies LLC, priority 2023, published 2026).

System: lung nodules
Details: ICG dye marking without use of a coil; prior experience

Structure (SMILES): CC1(C)C(/C=C/C=C/C=C/C=C2\N(CCCCS(=O)(=O)O)c3ccc4ccccc4c3C2(C)C)=[N+](CCCCS(=O)(=O)[O-])c2ccc3ccccc3c21 [ICG dye, indocyanine green]
- persistence of dye effect after ICG dye marking without a coil: fade away over several hours
